Assay results reported in US8932826B2, “Method for simultaneously determining multiple coagulation proteases” (Siemens Healthcare Diagnostics Products GmbH, priority 2010, dated 2015).

What was measured:
human factor Xa = human factor Xa (Homo sapiens, UniProt P00742); assay: Simultaneous chromogenic determination of factor Xa inhibition in enriched normal plasma (Z-D-Leu-Gly-Arg-ANBA-methylamide, 405 nm); assay type: biochemical
Procedure: (§1) The following components were mixed to form one reaction: • 10 μl sample • 10 μl pool of normal human plasma • 40 μl substrate reagent (4 mM Z-D-Leu-Gly-Arg-ANBA-methylamide, 0.8 mM Tos-Gly-Pro-Arg-Basic Blue 49 in mannitol buffer, pH 4.0) • 100 μl factor Xa reagent (0.75 U/ml human factor Xa in 4.5 g/l TRIS, 9 g/l NaCl, 0.56 g/l EDTA, pH 8.0) • 100 μl thrombin reagent (5 U/ml bovine thrombin in 1.2 g/l TRIS, pH 8.2)
(§2) The sample used was normal human plasma. Factor Xa cleaves ANBA from the factor Xa-specific peptide substrate Z-D-Leu-Gly-Arg-ANBA-methylamide, increasing over time the optical density in the reaction at a wavelength of 405 nm. At the same time, thrombin cleaves Basic Blue 49 from the thrombin-specific peptide substrate Tos-Gly-Pro-Arg-Basic Blue 49, increasing over time the optical density in the reaction at a wavelength of 575 nm.
(§3) The measurements of the optical densities of the reaction at 405 nm and 575 nm and the evaluation of the reaction kinetics were carried out simultaneously in a fully automated Sysmex® CS-2000i coagulation analyzer. To measure the optical densities, the reaction was irradiated alternately with light of the aforementioned wavelengths, and the absorbance of the light, caused by the coloration of the reaction, was determined as a function of wavelength and time.
(§4) The increases in the reaction kinetics for normal plasma without inhibitors were defined as 100% of the respective enzyme activity.

bovine thrombin = bovine thrombin (Bos taurus, UniProt P00735); assay: Simultaneous chromogenic determination of thrombin inhibition in enriched normal plasma (Tos-Gly-Pro-Arg-Basic Blue 49, 575 nm); assay type: biochemical
Procedure: as §1, §2, §3
Normal plasma was enriched with various concentrations of rivaroxaban, a specific factor Xa inhibitor, and/or of argatroban, a specific thrombin inhibitor, and used as a sample in a method as per example 1.
as §4

Sequence of human factor Xa (P00742 235-488 limits assumed): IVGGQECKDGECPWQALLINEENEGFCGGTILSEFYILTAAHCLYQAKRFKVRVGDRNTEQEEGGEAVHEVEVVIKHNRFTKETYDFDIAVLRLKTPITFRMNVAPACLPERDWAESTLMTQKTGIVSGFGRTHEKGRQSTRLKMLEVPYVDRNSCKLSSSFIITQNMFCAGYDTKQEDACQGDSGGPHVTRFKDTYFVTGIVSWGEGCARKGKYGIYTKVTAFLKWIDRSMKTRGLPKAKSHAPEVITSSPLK
Sequence of human factor Xa (P00742 41-179 partner limits assumed): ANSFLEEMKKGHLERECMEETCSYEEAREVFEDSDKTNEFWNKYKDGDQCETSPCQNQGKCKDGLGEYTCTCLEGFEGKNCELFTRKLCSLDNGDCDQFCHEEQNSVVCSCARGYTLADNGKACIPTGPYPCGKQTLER

Row | inhibition at 0.375 µg/mL (human factor Xa; normal plasma enriched with argatroban 375 ng/ml, rivaroxaban 0 ng/ml, read-out: F Xa inhibition [%]) [%] | inhibition at 0.75 µg/mL (human factor Xa; normal plasma enriched with argatroban 750 ng/ml, rivaroxaban 0 ng/ml, read-out: F Xa inhibition [%]) [%] | inhibition at 0.375 µg/mL (bovine thrombin; normal plasma enriched with argatroban 375 ng/ml, rivaroxaban 0 ng/ml) [%] | inhibition at 0.75 µg/mL (bovine thrombin; normal plasma enriched with argatroban 750 ng/ml, rivaroxaban 0 ng/ml) [%] | inhibition of thrombin activity, in words (FIG. 2) (bovine thrombin; samples having an increased argatroban concentration, irrespective of the rivaroxaban concentration) | inhibition at 0.125 µg/mL (human factor Xa; normal plasma enriched with rivaroxaban 125 ng/ml, argatroban 0 ng/ml, read-out: F Xa inhibition [%]) [%] | inhibition at 0.25 µg/mL (human factor Xa; normal plasma enriched with rivaroxaban 250 ng/ml, argatroban 0 ng/ml, read-out: F Xa inhibition [%]) [%] | inhibition of factor Xa activity, in words (FIG. 1) (human factor Xa; samples having an increased rivaroxaban concentration, irrespective of the argatroban concentration) | inhibition at 0.25 µg/mL (bovine thrombin; normal plasma enriched with rivaroxaban 250 ng/ml, argatroban 0 ng/ml) [%] | SMILES
1 | 0 | 0 | 18 | 31 | increased thrombin inhibition | – | – | – | – | CC1CNc2c(cccc2S(=O)(=O)N[C@@H](CCCNC(=N)N)C(=O)N2CC[C@@H](C)C[C@@H]2C(=O)O)C1 (stereo partly drawn) [Argatroban, argatroban]
2 | – | – | – | – | – | 42 | 65 | increased factor Xa inhibition | 5 | O=C(NC[C@H]1CN(c2ccc(N3CCOCC3=O)cc2)C(=O)O1)c1ccc(Cl)s1 [Rivaroxaban, rivaroxaban]
